Test results: the NIST ThermoML archive (doi:10.1021/je0342825)
Numbers after ± are expanded uncertainties.

Assays:
[1] = 101.3 kPa, Liquid
[2] = xn = mol fraction of the nth substance listed; settings: 101.3 kPa, Liquid

CCO [ethanol]
[1]
Settings	mass density [kg/m3]	speed of sound [m/s]	viscosity [mPa·s]
293.15 K	789.75 ± 0.46	1162 ± 1	1.187 ± 0.015
298.15 K	785.46 ± 0.47	1145 ± 1	1.082 ± 0.014
303.15 K	781.15 ± 0.47	1128 ± 1	0.987 ± 0.013

CC(=O)O [acetic acid]
[1]
Settings	mass density [kg/m3]	speed of sound [m/s]	viscosity [mPa·s]
293.15 K	1049.3 ± 0.57	1149 ± 2	1.211 ± 0.016
298.15 K	1043.65 ± 0.56	1132 ± 2	1.115 ± 0.015
303.15 K	1038 ± 0.56	1115 ± 2	1.034 ± 0.014

CO [methanol]
[1]
Settings	mass density [kg/m3]	speed of sound [m/s]	viscosity [mPa·s]
293.15 K	791.9 ± 0.46	1121 ± 1	0.585 ± 0.008
298.15 K	787.2 ± 0.47	1104 ± 1	0.545 ± 0.008
303.15 K	782.48 ± 0.47	1088 ± 1	0.508 ± 0.007

COC(C)=O [methyl ethanoate]
[1]
Settings	mass density [kg/m3]	speed of sound [m/s]	viscosity [mPa·s]
293.15 K	933.56 ± 0.53	1174 ± 2	0.386 ± 0.006
298.15 K	926.98 ± 0.53	1151 ± 2	0.367 ± 0.006
303.15 K	920.34 ± 0.53	1128 ± 2	0.348 ± 0.006

CC(=O)O [acetic acid] + O
[2]
Settings	mass density, 293.15 K [kg/m3]	mass density, 298.15 K [kg/m3]	mass density, 303.15 K [kg/m3]	speed of sound, 293.15 K [m/s]	speed of sound, 298.15 K [m/s]	speed of sound, 303.15 K [m/s]	viscosity, 293.15 K [mPa·s]	viscosity, 298.15 K [mPa·s]	viscosity, 303.15 K [mPa·s]
x1 = 0.0503	1019.37 ± 0.17	1017.24 ± 0.17	1014.94 ± 0.17	1528 ± 2	1533 ± 2	1537 ± 2	1.304 ± 0.017	1.151 ± 0.015	1.023 ± 0.014
x1 = 0.1009	1034.95 ± 0.21	1032.04 ± 0.2	1029.02 ± 0.2	1537 ± 2	1536 ± 2	1535 ± 2	1.578 ± 0.02	1.385 ± 0.018	1.226 ± 0.016
x1 = 0.2018	1053.88 ± 0.26	1050 ± 0.25	1046.07 ± 0.25	1509 ± 2	1502 ± 2	1494 ± 2	2.031 ± 0.025	1.777 ± 0.023	1.571 ± 0.021
x1 = 0.3006	1063.42 ± 0.3	1058.83 ± 0.3	1054.2 ± 0.29	1465 ± 2	1454 ± 2	1443 ± 2	2.355 ± 0.029	2.053 ± 0.026	1.809 ± 0.024
x1 = 0.4015	1068.15 ± 0.34	1063.42 ± 0.34	1058.66 ± 0.33	1418 ± 2	1405 ± 2	1392 ± 2	2.559 ± 0.032	2.232 ± 0.029	1.965 ± 0.026
x1 = 0.5012	1069.68 ± 0.38	1064.77 ± 0.37	1059.78 ± 0.37	1373 ± 2	1359 ± 2	1344 ± 2	2.652 ± 0.033	2.316 ± 0.03	2.046 ± 0.027
x1 = 0.6005	1068.8 ± 0.42	1063.48 ± 0.41	1058.24 ± 0.41	1329 ± 2	1314 ± 2	1299 ± 2	2.627 ± 0.033	2.3 ± 0.03	2.029 ± 0.027
x1 = 0.7004	1066.55 ± 0.46	1061.22 ± 0.45	1055.91 ± 0.45	1286 ± 2	1270 ± 2	1254 ± 2	2.417 ± 0.03	2.129 ± 0.028	1.89 ± 0.025
x1 = 0.8017	1062.78 ± 0.49	1057.34 ± 0.49	1051.9 ± 0.48	1243 ± 2	1226 ± 2	1210 ± 2	2.077 ± 0.027	1.85 ± 0.024	1.656 ± 0.022
x1 = 0.8996	1057.35 ± 0.53	1051.8 ± 0.53	1046.25 ± 0.52	1199 ± 2	1183 ± 2	1166 ± 2	1.666 ± 0.022	1.503 ± 0.02	1.367 ± 0.018
x1 = 0.9523	1053.56 ± 0.55	1047.96 ± 0.55	1042.35 ± 0.54	1175 ± 2	1157 ± 2	1140 ± 2	1.416 ± 0.019	1.294 ± 0.017	1.19 ± 0.016
x1 = 1	1049.3 ± 0.57	1043.65 ± 0.56	1038 ± 0.56	1149 ± 2	1132 ± 2	1115 ± 2	1.211 ± 0.016	1.115 ± 0.015	1.034 ± 0.014

CCOC(C)=O [ethyl acetate] + CC(=O)O
[2], x2 = 0
Settings	mass density [kg/m3]	speed of sound [m/s]	viscosity [mPa·s]
293.15 K	900.52 ± 0.3	1163 ± 1	0.452 ± 0.007
298.15 K	894.43 ± 0.31	1140 ± 1	0.426 ± 0.006
303.15 K	888.3 ± 0.32	1118 ± 1	0.403 ± 0.006

CCOC(C)=O [ethyl acetate]
[1]
Settings	mass density [kg/m3]	speed of sound [m/s]	viscosity [mPa·s]
293.15 K	900.52 ± 0.3	1163 ± 1	0.452 ± 0.007
298.15 K	894.43 ± 0.31	1140 ± 1	0.426 ± 0.006
303.15 K	888.3 ± 0.32	1118 ± 1	0.403 ± 0.006

CC(=O)O [acetic acid] + CCOC(C)=O
[2]
Settings	mass density, 293.15 K [kg/m3]	mass density, 298.15 K [kg/m3]	mass density, 303.15 K [kg/m3]	speed of sound, 293.15 K [m/s]	speed of sound, 298.15 K [m/s]	speed of sound, 303.15 K [m/s]	viscosity, 293.15 K [mPa·s]	viscosity, 298.15 K [mPa·s]	viscosity, 303.15 K [mPa·s]
x1 = 0.0697	907.35 ± 0.3	901.3 ± 0.31	895.2 ± 0.31	1165 ± 1	1143 ± 1	1121 ± 1	0.473 ± 0.007	0.446 ± 0.007	0.422 ± 0.006
x1 = 0.0988	910.56 ± 0.3	904.53 ± 0.31	898.44 ± 0.31	1166 ± 1	1144 ± 1	1122 ± 1	0.485 ± 0.007	0.458 ± 0.007	0.433 ± 0.006
x1 = 0.196	920.61 ± 0.3	914.62 ± 0.31	908.59 ± 0.32	1166 ± 1	1144 ± 1	1123 ± 1	0.523 ± 0.007	0.493 ± 0.007	0.465 ± 0.007
x1 = 0.2944	931.46 ± 0.31	925.5 ± 0.32	919.49 ± 0.33	1165 ± 1	1144 ± 1	1123 ± 1	0.561 ± 0.008	0.528 ± 0.007	0.498 ± 0.007
x1 = 0.3968	943.68 ± 0.33	937.74 ± 0.34	931.77 ± 0.34	1165 ± 1	1143 ± 1	1123 ± 1	0.617 ± 0.009	0.577 ± 0.008	0.541 ± 0.008
x1 = 0.5007	957.31 ± 0.36	951.4 ± 0.36	945.46 ± 0.36	1163 ± 2	1142 ± 2	1122 ± 1	0.668 ± 0.009	0.627 ± 0.009	0.589 ± 0.008
x1 = 0.5967	971.28 ± 0.38	965.4 ± 0.38	959.5 ± 0.39	1162 ± 2	1141 ± 2	1121 ± 2	0.731 ± 0.01	0.684 ± 0.009	0.642 ± 0.009
x1 = 0.7	987.79 ± 0.41	981.94 ± 0.41	976.09 ± 0.41	1159 ± 2	1140 ± 2	1120 ± 2	0.817 ± 0.011	0.762 ± 0.01	0.714 ± 0.01
x1 = 0.7989	1005.47 ± 0.45	999.66 ± 0.45	993.85 ± 0.45	1157 ± 2	1137 ± 2	1119 ± 2	0.912 ± 0.012	0.848 ± 0.012	0.792 ± 0.011
x1 = 0.8993	1025.8 ± 0.51	1020.06 ± 0.5	1014.32 ± 0.5	1153 ± 2	1135 ± 2	1117 ± 2	1.052 ± 0.014	0.975 ± 0.013	0.91 ± 0.012
x1 = 0.9493	1037.09 ± 0.54	1031.4 ± 0.53	1025.69 ± 0.53	1152 ± 2	1134 ± 2	1116 ± 2	1.113 ± 0.015	1.031 ± 0.014	0.958 ± 0.013
x1 = 1	1049.3 ± 0.57	1043.65 ± 0.56	1038 ± 0.56	1149 ± 2	1132 ± 2	1115 ± 2	1.211 ± 0.016	1.115 ± 0.015	1.034 ± 0.014

O [water]
[1]
Settings	viscosity [mPa·s]
293.15 K	1.003 ± 0.013
298.15 K	0.89 ± 0.012
303.15 K	0.797 ± 0.011

CO [methanol] + CC(=O)O
[2], x2 = 0
Settings	mass density [kg/m3]	speed of sound [m/s]	viscosity [mPa·s]
293.15 K	791.9 ± 0.46	1121 ± 1	0.585 ± 0.008
298.15 K	787.2 ± 0.47	1104 ± 1	0.545 ± 0.008
303.15 K	782.48 ± 0.47	1088 ± 1	0.508 ± 0.007
